Measured values from ChEMBL document CHEMBL3102724, “Isolation of antiplasmodial anthraquinones from Kniphofia ensifolia, and synthesis and structure-activity relationships of related compounds” (Bioorg Med Chem, 2014).

Legend:
A2780 = experiment: Cytotoxicity against human A2780 cells; type: cell-based
Plasmodium falciparum = experiment: Antiplasmodial activity against chloroquine-resistant ring stage Plasmodium falciparum Dd2 after 72 hrs by SYBR Green 1-based fluorescence assay; type: functional, organism-based; conditions: Dd2, 72 h

In the case of COc1cc(O)c(-c2c(C)cc(O)c3c2C(=O)c2cccc(O)c2C3=O)c(O)c1C(C)=O [KNIPHOLONE], the IC50 (A2780) is reported as 8 µM and the IC50 (Plasmodium falciparum) is reported as 1.1 µM.

Work on CC(=O)OCc1cc(O)c2c(c1)C(=O)c1cccc(O)c1C2=O yielded an IC50 (Plasmodium falciparum) of 42 µM.

COc1cc(/C=C/C(=O)OCc2cc(O)c3c(c2)C(=O)c2cccc(O)c2C3=O)cc(OC)c1 was tested, and the IC50 (Plasmodium falciparum) was 2.5 µM.

O=C(CCc1ccccc1)OCc1cc(O)c2c(c1)C(=O)c1cccc(O)c1C2=O showed an IC50 (Plasmodium falciparum) of 36 µM.

In the case of O=C(/C=C/c1ccccc1)OCc1cc(O)c2c(c1)C(=O)c1cccc(O)c1C2=O, the IC50 (Plasmodium falciparum) is reported as 18 µM.

O=C(OCc1cc(O)c2c(c1)C(=O)c1cccc(O)c1C2=O)c1ccccc1 was tested, and the IC50 (Plasmodium falciparum) was 31 µM.

For COc1ccc(C(=O)OCc2cc(O)c3c(c2)C(=O)c2cccc(O)c2C3=O)cc1, the IC50 (Plasmodium falciparum) was 22 µM.

With COc1ccc(/C=C/C(=O)OCc2cc(O)c3c(c2)C(=O)c2cccc(O)c2C3=O)cc1 the IC50 (Plasmodium falciparum) was 5 µM.

C/C=C/C(=O)OCc1cc(O)c2c(c1)C(=O)c1cccc(O)c1C2=O gave an IC50 (Plasmodium falciparum) of 45 µM.

Work on CC(=O)Oc1ccc(/C=C/C(=O)OCc2cc(O)c3c(c2)C(=O)c2cccc(O)c2C3=O)cc1 yielded an IC50 (Plasmodium falciparum) of 12 µM.

COc1ccc(/C=C/C(=O)OCc2cc(O)c3c(c2)C(=O)c2cccc(O)c2C3=O)c(OC)c1 was tested, and the IC50 (Plasmodium falciparum) was 6 µM.

With COc1cc(/C=C/C(=O)OCc2cc(O)c3c(c2)C(=O)c2cccc(O)c2C3=O)cc(OC)c1OC the IC50 (Plasmodium falciparum) was 2.7 µM.

For COc1cccc(/C=C/C(=O)OCc2cc(O)c3c(c2)C(=O)c2cccc(O)c2C3=O)c1OC, the IC50 (Plasmodium falciparum) was 8 µM.

For Cc1cc(O)c2c(c1)C(=O)c1ccc(C3(O)c4cccc(O)c4C(=O)c4c(O)cc(C)cc43)c(O)c1C2=O (configuration not stated), the IC50 (A2780) was 6 µM and the IC50 (Plasmodium falciparum) was 0.4 µM.

Molecule O=C1c2cccc(O)c2C(=O)c2c(O)cc(CO)cc21 [ALOE-EMODIN] has an IC50 (A2780) of 26 µM and an IC50 (Plasmodium falciparum) of 55 µM.

Molecule CC(=O)Oc1ccc(C(=O)OCc2cc(O)c3c(c2)C(=O)c2cccc(O)c2C3=O)cc1 has an IC50 (Plasmodium falciparum) of 30 µM.

Work on COc1cc(C(=O)OCc2cc(O)c3c(c2)C(=O)c2cccc(O)c2C3=O)cc(OC)c1OC yielded an IC50 (Plasmodium falciparum) of 16 µM.

O=C(OCc1cc(O)c2c(c1)C(=O)c1cccc(O)c1C2=O)c1ccc(O)cc1 gave an IC50 (A2780) of over 60 µM and an IC50 (Plasmodium falciparum) of 26 µM.

Cc1cc(O)c2c(c1)C(=O)c1cccc(O)c1C2=O [CHRYSOPHANOL] gave an IC50 (A2780) of over 60 µM and an IC50 (Plasmodium falciparum) of 58 µM.

Cc1cc(O)cc2c1C(=O)c1cc(-c3c(C)cc4c(c3O)C(=O)c3c(O)cccc3C4=O)cc(O)c1C2=O showed an IC50 (A2780) of over 60 µM and an IC50 (Plasmodium falciparum) of 10 µM.

COc1ccc(OC)c(/C=C/C(=O)OCc2cc(O)c3c(c2)C(=O)c2cccc(O)c2C3=O)c1 gave an IC50 (Plasmodium falciparum) of 9 µM.

For C[C@@H]1CC[C@H]2[C@@H](C)C(=O)O[C@@H]3O[C@@]4(C)CC[C@@H]1[C@]32OO4 [ARTEMISININ], the IC50 (Plasmodium falciparum) was 0.007 µM.

In the case of O=C(/C=C/c1ccc(O)cc1)OCc1cc(O)c2c(c1)C(=O)c1cccc(O)c1C2=O, the IC50 (A2780) is reported as over 60 µM and the IC50 (Plasmodium falciparum) is reported as 9 µM.

With Cc1cc(O)c2c(c1)C(O)(c1ccc3c(c1O)C(=O)c1c(O)cc(C)c(O)c1C3=O)c1cccc(O)c1C2=O (configuration not stated) the IC50 (A2780) was 4 µM and the IC50 (Plasmodium falciparum) was 0.2 µM.

Cc1cc(O)c2c(c1)C(=O)c1ccc(-c3c(C)cc(O)c4c3C(=O)c3cccc(O)c3C4=O)c(O)c1C2=O showed an IC50 (A2780) of over 60 µM and an IC50 (Plasmodium falciparum) of 10 µM.

COc1ccc(C(=O)OCc2cc(O)c3c(c2)C(=O)c2cccc(O)c2C3=O)cc1OC was tested, and the IC50 (Plasmodium falciparum) was 14 µM.

With COc1ccc(/C=C/C(=O)OCc2cc(O)c3c(c2)C(=O)c2cccc(O)c2C3=O)cc1OC the IC50 (Plasmodium falciparum) was 1.3 µM.

For O=C(/C=C/c1ccc2c(c1)OCO2)OCc1cc(O)c2c(c1)C(=O)c1cccc(O)c1C2=O, the IC50 (Plasmodium falciparum) was 1.9 µM.
